Test results taken from patent US7893288B2, “Poly-halogenated triazapentadiene compositions” (Board of Regents, The University of Texas System, priority 2007, dated 2011).
Several values for one entry are separate records, joined by “and”; a condition that tells them apart may be missing. Equal values may be shown once.

What was measured:
Type in all cases: cell-based
[1] = system: Staphylococcus aureus (ATCC 25923); experiment: Disk sensitivity test (modified Kirby-Bauer), S. aureus;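 further: Compound-loaded filter disks on LB agar plates seeded with a confluent bacterial lawn, compound dissolved in DMSO, plates kept overnight at 37 °C, then inhibition zone around disk measured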
Bacillus subtilis W168 [2] = experiment: Disk sensitivity test (modified Kirby-Bauer), B. subtilis;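 further: Compound-loaded filter disks on LB agar plates seeded with a bacterial lawn, plates held overnight at 37 °C, then the clear zone around each disk measured, compounds in DMSO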
Experimental: (§1) Filter disks were provided as sterile filter paper (about 6 mm in diameter) and spotted with 20 μL of a selected compound. Each compound was initially dissolved in dimethylsulfoxide (DMSO); any subsequent dilutions were also made in DMSO. Each filter was placed on an LB agar plate spread with 100 μL of a bacterial culture that had been grown overnight in suitable LB broth. Plates were incubated overnight at 37° C., after which, the extent of growth inhibition around each filter disk was measured. Bacterial strains included Staphylococcus aureus (ATCC 25923), Pseudomonas aeruginosa PAO1, Bacillus subtilis W168 and Escherichia coli HB101. […] The latter two strains are non-pathogenic Gram-positive and Gram-negative bacterial strains, respectively.

[3] = system: Pseudomonas aeruginosa PAO1; experiment: Disk sensitivity test (modified Kirby-Bauer), P. aeruginosa;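 further: Compound-loaded filter disks on LB agar lawns, DMSO as solvent, zone of inhibition around each disk read after overnight incubation at 37 °C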
Experimental: as §1

Escherichia coli HB101 [4] = experiment: Disk sensitivity test (modified Kirby-Bauer), E. coli;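 further: filter disk loaded with compound in DMSO laid on an LB agar bacterial lawn, kept overnight at 37 °C, then the inhibition zone around the disk is measured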
Experimental: as §1

[5] = system: Staphylococcus aureus (ATCC 25923); experiment: Minimum inhibitory concentration in LB broth, S. aureus; conditions: for Relative to AgNO3: efficacy per mole from MIC values
Bacillus subtilis W168 [6] = experiment: Minimum inhibitory concentration in LB broth, B. subtilis; conditions: for Relative to AgNO3: efficacy per mole from MIC values
[7] = system: Pseudomonas aeruginosa PAO1; experiment: Minimum inhibitory concentration in LB broth, P. aeruginosa; conditions: for Relative to AgNO3: efficacy per mole from MIC values
Escherichia coli HB101 [8] = experiment: Minimum inhibitory concentration in LB broth, E. coli; conditions: for Relative to AgNO3: efficacy per mole from MIC values;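 on all read-outs here: broth dilution MIC, test compounds first taken up in DMSO, then serially diluted in LB medium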
[9] = system: Gram positive and Gram negative bacteria; experiment: Antimicrobial activity, summary of TABLES 16-18
Experimental: The new class of fluorinated triazapentadiene compounds with and without metal complexation as described herein were analyzed for antibacterial activity against several bacterial strains (both Gram positive and Gram negative). Methods for antimicrobial analysis included a modified Kirby-Bauer method and a determination of their minimum inhibitory concentrations. In brief, the modified Kirby-Bauer method relied on placement of a filter disk impregnated with a desired compound on a solid growth medium. Bacteria were grown to a confluent lawn and the extent of growth inhibition was measured (e.g., as an extent/percentage of a clear zone on the disk and/or solid medium).
For MIC assessment, compounds were initially dissolved in DMSO and serial dilutions of soluble compounds were made in LB broth.

Row | SMILES | Diameter of the zone of growth inhibition ([1]; 5.7 × 10^0 mM) | Diameter of the zone of growth inhibition ([1]; 5.7 × 10^1 mM) | Diameter of the zone of growth inhibition ([1]; 5.7 × 10^−1 mM) | Diameter of the zone of growth inhibition ([1]; 5.7 × 10^−2 mM) | Diameter of the zone of growth inhibition ([1]; 5.7 × 10^−3 mM) | Diameter of the zone of growth inhibition ([1]; 5.7 × 10^−4 mM) | Diameter of the zone of growth inhibition ([1]; 5.7 × 10^−5 mM) | Diameter of the zone of growth inhibition (Bacillus subtilis W168 [2]; 5.7 × 10^0 mM) | Diameter of the zone of growth inhibition (Bacillus subtilis W168 [2]; 5.7 × 10^1 mM) | Diameter of the zone of growth inhibition (Bacillus subtilis W168 [2]; 5.7 × 10^−1 mM) | Diameter of the zone of growth inhibition (Bacillus subtilis W168 [2]; 5.7 × 10^−2 mM) | Diameter of the zone of growth inhibition (Bacillus subtilis W168 [2]; 5.7 × 10^−3 mM) | Diameter of the zone of growth inhibition (Bacillus subtilis W168 [2]; 5.7 × 10^−4 mM) | Diameter of the zone of growth inhibition (Bacillus subtilis W168 [2]; 5.7 × 10^−5 mM) | Diameter of the zone of growth inhibition ([3]; 5.7 × 10^0 mM) | Diameter of the zone of growth inhibition ([3]; 5.7 × 10^1 mM) | Diameter of the zone of growth inhibition ([3]; 5.7 × 10^−1 mM) | Diameter of the zone of growth inhibition ([3]; 5.7 × 10^−2 mM) | Diameter of the zone of growth inhibition ([3]; 5.7 × 10^−3 mM) | Diameter of the zone of growth inhibition (Escherichia coli HB101 [4]; 5.7 × 10^0 mM) | also measured
1 | FC(F)(F)C(F)(F)C(F)(F)C(=Nc1c(Cl)cccc1Cl)N=C(Nc1c(Cl)cccc1Cl)C(F)(F)C(F)(F)C(F)(F)F [[N{(C3F7)C(2,6-Cl2C6H3)N}2]H] | 20.0 mm | 13.0 mm | 16.0 mm | 15.0 mm | 7.0 mm | 7.0 mm | 8.0 mm | 19.0 mm | 21.0 mm | 18.5 mm | 19.0 mm | 13.0 mm | 8.5 mm | 7.0 mm | 8.0 mm | 9.0 mm | 8.0 mm | 8.0 mm | 7.0 mm | 8.0 mm | Diameter of the zone of growth inhibition ([1]; 5.7 × 10^−6 mM): 6.0 (NZ) mm; Diameter of the zone of growth inhibition ([1]; 5.7 × 10^−7 mM): 6.0 (NZ) mm; Diameter of the zone of growth inhibition (Bacillus subtilis W168 [2]; 5.7 × 10^−6 mM): 7.5 mm; Diameter of the zone of growth inhibition (Bacillus subtilis W168 [2]; 5.7 × 10^−7 mM): 6.0 (NZ) mm; Diameter of the zone of growth inhibition (Escherichia coli HB101 [4]; 5.7 × 10^1 mM): 9.0 mm; Diameter of the zone of growth inhibition (Escherichia coli HB101 [4]; 5.7 × 10^−1 mM): 8.0 mm; Diameter of the zone of growth inhibition (Escherichia coli HB101 [4]; 5.7 × 10^−2 mM): 8.0 mm; Diameter of the zone of growth inhibition (Escherichia coli HB101 [4]; 5.7 × 10^−3 mM): 6.0 (NZ) mm; MIC [5]: 7.80 μg/ml and 2.12 × 10^−3 mM; Relative to AgNO3 [5]: 6.57; MIC (Bacillus subtilis W168 [6]): 4.27 × 10^−1 μg/ml and 4.59 × 10^−4 mM; Relative to AgNO3 (Bacillus subtilis W168 [6]): 320.26; MIC [7]: >16671.80 μg/ml and >23.92 mM; Relative to AgNO3 [7]: <7.69 × 10^−4; MIC (Escherichia coli HB101 [8]): >16671.80 μg/ml and >23.92 mM; Relative to AgNO3 (Escherichia coli HB101 [8]): <2.46 × 10^−3; antimicrobial activity (in words) [9]: Effective
2 | FC(F)(F)C(F)(F)C(F)(F)C(=Nc1c(Cl)cccc1Cl)N=C([N]([Ag])c1c(Cl)cccc1Cl)C(F)(F)C(F)(F)C(F)(F)F [[N{(C3F7)C(2,6-Cl2C6H3)N}2]Ag] | 16.5 mm | 20.0 mm | 15.0 mm | 14.5 mm | 11.0 mm | 6.0 (NZ) mm | 6.0 (NZ) mm | 21.0 mm | 19.5 mm | 18.0 mm | 19.0 mm | 12.0 mm | 6.0 (NZ) mm | 6.0 (NZ) mm | 13.5 mm | 15.0 mm | 10.0 mm | 7.0 mm | 6.0 (NZ) mm | 16.0 mm | Diameter of the zone of growth inhibition (Escherichia coli HB101 [4]; 5.7 × 10^1 mM): 15.5 mm; Diameter of the zone of growth inhibition (Escherichia coli HB101 [4]; 5.7 × 10^−1 mM): 11.0 mm; Diameter of the zone of growth inhibition (Escherichia coli HB101 [4]; 5.7 × 10^−2 mM): 9.0 mm; Diameter of the zone of growth inhibition (Escherichia coli HB101 [4]; 5.7 × 10^−3 mM): 7.0 mm; MIC [5]: 0.853 μg/ml and 1.12 × 10^−2 mM; Relative to AgNO3 [5]: 69.43; MIC (Bacillus subtilis W168 [6]): 4.27 × 10^−1 μg/ml and 5.31 × 10^−4 mM; Relative to AgNO3 (Bacillus subtilis W168 [6]): 276.84; MIC [7]: 72.20 μg/ml and 8.98 × 10^−2 mM; sensitivity of the bacteria to the compound (in words) [7]: most sensitive; Relative to AgNO3 [7]: 2.05 × 10^−1; MIC (Escherichia coli HB101 [8]): 72.20 μg/ml and 8.98 × 10^−2 mM; sensitivity of the bacteria to the compound (in words) (Escherichia coli HB101 [8]): most sensitive; Relative to AgNO3 (Escherichia coli HB101 [8]): 6.56 × 10^−1; antimicrobial activity (in words) [9]: Effective
